Laboratory results published in patent US11382902B2, “Treatment of cancer by stimulation of IL-12 production” (Macrophage Pharma Limited, priority 2017, dated 2022).
pEC50, pIC50: −log10 of the molar value.

Tests used:
[1] = system: IL-12p70 production in PBMCs stimulated with LPS; assay: Stimulation of IL-12p70 in human PBMCs stimulated with LPS (ELISA / multiplex immunoassay); type: cell-based; conditions: PBMC, LPS 1 μg/mL, 72 hrs culture, read-out: Stimulation of IL-12p70 in PBMC's stimulated with LPS EC50
Method: (§1) Human PBMCs from six healthy donors were isolated from whole blood. PBMCs were resuspended in RPMI-10 at 1×10^6/mL and plated at a density of 2×10^5 per well (200 μL) in 96-well round bottom culture plates. Treatments or reference controls at different concentrations were prepared in DMSO according to client/supplier instruction and added directly to wells at a final volume of 0.2 μL per well (1:1000). After 2 hours, LPS was added to the culture (1 μg/mL final, 10 μL per well). Cells were cultured for 72 hrs at 37° C. and 5% CO2. Cell-free supernatants were collected at the end of culture period, transferred to new 96-well plates and frozen at −80° C. prior to assessment of IFN-γ, IL-10, IL-12p70 and TNF-α by ELISA and multiplex immunoassay.
(§2) Cultures were performed in triplicate to provide technical replicates and PBMCs from six healthy donors were included to provide biological replication.
(§3) All test and reference substances were formulated at 10 mM stock concentration in anhydrous DMSO, filtered and frozen in aliquots. Immediately prior to addition to assay, stock solutions were diluted in DMSO to prepare solutions at 1000 times the final required concentration. All final formulations were freshly prepared and kept sterile and light protected prior to the addition in cultures.
(§4) ELISA plates were read at 450 nm using an Infinite F50 (Tecan) absorbance reader and Magellan™ reader control and data analysis software. Multiplex immunoassays were read using a Luminex MAGPIX multiplexing system and ProcartaPlex Analyst 1.0 software. Graphs were prepared using Graphpad Prism (v6.0). Data were normalised to mean of respective vehicle control group (100%) within each biological replicate to account for donor variation.

[2] = system: IFN-γ production in PBMCs stimulated with LPS; assay: Stimulation of IFN-γ in human PBMCs stimulated with LPS (ELISA / multiplex immunoassay); type: cell-based; conditions: LPS 1 μg/mL, 72 hrs culture
Method: as §1, §2, §3, §4

[3] = system: IL10 production in PBMCs stimulated with LPS; assay: Inhibition of IL10 in human PBMCs stimulated with LPS (ELISA / multiplex immunoassay); type: cell-based; conditions: for pIC50: PBMC, human PBMCs, LPS 1 μg/mL, 72 hrs culture, read-out: Inhibition of IL10 in PBMC's stimulated with LPS IC50
Method: as §1, §2, §3, §4

p38 MAPK = p38 MAPK (Homo sapiens, UniProt Q16539); assay: Inhibition of p38 MAPK; type: biochemical
[4] = versus 6-Amino-5-(2,4-difluorobenzoyl)-1-[2,6-difluorophenyl]pyridin-2(1H)-one and PH797804

Sequence of p38 MAPK (Q16539 whole entry): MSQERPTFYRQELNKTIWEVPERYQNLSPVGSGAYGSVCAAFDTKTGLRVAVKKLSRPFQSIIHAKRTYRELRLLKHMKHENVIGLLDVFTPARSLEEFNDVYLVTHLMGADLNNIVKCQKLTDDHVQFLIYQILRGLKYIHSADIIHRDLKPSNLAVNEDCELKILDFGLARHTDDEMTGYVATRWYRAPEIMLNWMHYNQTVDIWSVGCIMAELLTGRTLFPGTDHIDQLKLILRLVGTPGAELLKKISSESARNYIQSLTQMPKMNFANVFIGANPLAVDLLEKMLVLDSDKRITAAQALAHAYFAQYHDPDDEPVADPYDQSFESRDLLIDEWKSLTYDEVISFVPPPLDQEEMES

| pEC50 (p38 MAPK) | Fold less potent inhibitory activity against p38 MAPK than the reference inhibitors (p38 MAPK; [4]) | Structure (SMILES) | pEC50 [1] | Stimulation of INF-γ in PBMCs stimulated with LPS EC50 (nM) [2] | pIC50 [3] | pEC50 ([2]; PBMC, read-out: Stimulation of INF-γ in PBMCs stimulated with LPS EC50) | IL10 production inhibited at concentrations fold lower than conventional p38 MAPK inhibitors [3, 4] |
| --- | --- | --- | --- | --- | --- | --- | --- |
| > 9.00 | – | Nc1c(C(=O)c2ccc(F)cc2F)ccc(=O)n1-c1c(F)cccc1F [6-Amino-5-(2,4-difluorobenzoyl)-1-[2,6-difluorophenyl]pyridin-2(1H)-one] | < 6.52 | No stimulation | 8.00 | – | – |
| – | – | CNC(=O)c1ccc(C)c(-n2c(C)cc(OCc3ccc(F)cc3F)c(Br)c2=O)c1 [PH797804, 3-[3-Bromo-4-[(2,4-difluorophenyl)methoxy]-6-methyl-2-oxo-1(2H)-pyridinyl]-N,4-dimethyl-benzamide] | < 6.52 | No stimulation | 8.00 | – | – |
| 7.92 | 10 fold | C[C@H](NCCc1cc(F)c(-n2c(N)c(C(=O)c3ccc(F)cc3F)ccc2=O)c(F)c1)C(=O)OC(C)(C)C [tert-Butyl N-(2-{4-[6-amino-5-(2,4-difluorobenzoyl)-2-oxopyridin-1(2H)-yl]-3,5-difluorophenyl}ethyl)-L-alaninate] | > 9.00 | – | > 9.00 | 9.00 | at least 10 fold |
